Measurements as given in ChEMBL document CHEMBL1201862, “PubChem BioAssay data set” (2004).
Active and inactive are the calls of the source.

Key:
[1] = system: Vero; test: cells; format: functional; conditions: Chlorocebus sabaeus
[2] = A Cell Based Secondary Assay To Explore Cytotoxicity of Compounds that Sensitize Mycobacterium Tuberculosis to Beta-Lactam Antibiotics.; format: functional
[3] = molecular target: Voltage-dependent T-type calcium channel subunit alpha-1H (Homo sapiens, UniProt O95180); format: functional;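 also: channel activity triggered by adding a high calcium stimulation buffer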
Voltage-dependent T-type calcium channel subunit alpha-1H, sequence (O95180 whole entry): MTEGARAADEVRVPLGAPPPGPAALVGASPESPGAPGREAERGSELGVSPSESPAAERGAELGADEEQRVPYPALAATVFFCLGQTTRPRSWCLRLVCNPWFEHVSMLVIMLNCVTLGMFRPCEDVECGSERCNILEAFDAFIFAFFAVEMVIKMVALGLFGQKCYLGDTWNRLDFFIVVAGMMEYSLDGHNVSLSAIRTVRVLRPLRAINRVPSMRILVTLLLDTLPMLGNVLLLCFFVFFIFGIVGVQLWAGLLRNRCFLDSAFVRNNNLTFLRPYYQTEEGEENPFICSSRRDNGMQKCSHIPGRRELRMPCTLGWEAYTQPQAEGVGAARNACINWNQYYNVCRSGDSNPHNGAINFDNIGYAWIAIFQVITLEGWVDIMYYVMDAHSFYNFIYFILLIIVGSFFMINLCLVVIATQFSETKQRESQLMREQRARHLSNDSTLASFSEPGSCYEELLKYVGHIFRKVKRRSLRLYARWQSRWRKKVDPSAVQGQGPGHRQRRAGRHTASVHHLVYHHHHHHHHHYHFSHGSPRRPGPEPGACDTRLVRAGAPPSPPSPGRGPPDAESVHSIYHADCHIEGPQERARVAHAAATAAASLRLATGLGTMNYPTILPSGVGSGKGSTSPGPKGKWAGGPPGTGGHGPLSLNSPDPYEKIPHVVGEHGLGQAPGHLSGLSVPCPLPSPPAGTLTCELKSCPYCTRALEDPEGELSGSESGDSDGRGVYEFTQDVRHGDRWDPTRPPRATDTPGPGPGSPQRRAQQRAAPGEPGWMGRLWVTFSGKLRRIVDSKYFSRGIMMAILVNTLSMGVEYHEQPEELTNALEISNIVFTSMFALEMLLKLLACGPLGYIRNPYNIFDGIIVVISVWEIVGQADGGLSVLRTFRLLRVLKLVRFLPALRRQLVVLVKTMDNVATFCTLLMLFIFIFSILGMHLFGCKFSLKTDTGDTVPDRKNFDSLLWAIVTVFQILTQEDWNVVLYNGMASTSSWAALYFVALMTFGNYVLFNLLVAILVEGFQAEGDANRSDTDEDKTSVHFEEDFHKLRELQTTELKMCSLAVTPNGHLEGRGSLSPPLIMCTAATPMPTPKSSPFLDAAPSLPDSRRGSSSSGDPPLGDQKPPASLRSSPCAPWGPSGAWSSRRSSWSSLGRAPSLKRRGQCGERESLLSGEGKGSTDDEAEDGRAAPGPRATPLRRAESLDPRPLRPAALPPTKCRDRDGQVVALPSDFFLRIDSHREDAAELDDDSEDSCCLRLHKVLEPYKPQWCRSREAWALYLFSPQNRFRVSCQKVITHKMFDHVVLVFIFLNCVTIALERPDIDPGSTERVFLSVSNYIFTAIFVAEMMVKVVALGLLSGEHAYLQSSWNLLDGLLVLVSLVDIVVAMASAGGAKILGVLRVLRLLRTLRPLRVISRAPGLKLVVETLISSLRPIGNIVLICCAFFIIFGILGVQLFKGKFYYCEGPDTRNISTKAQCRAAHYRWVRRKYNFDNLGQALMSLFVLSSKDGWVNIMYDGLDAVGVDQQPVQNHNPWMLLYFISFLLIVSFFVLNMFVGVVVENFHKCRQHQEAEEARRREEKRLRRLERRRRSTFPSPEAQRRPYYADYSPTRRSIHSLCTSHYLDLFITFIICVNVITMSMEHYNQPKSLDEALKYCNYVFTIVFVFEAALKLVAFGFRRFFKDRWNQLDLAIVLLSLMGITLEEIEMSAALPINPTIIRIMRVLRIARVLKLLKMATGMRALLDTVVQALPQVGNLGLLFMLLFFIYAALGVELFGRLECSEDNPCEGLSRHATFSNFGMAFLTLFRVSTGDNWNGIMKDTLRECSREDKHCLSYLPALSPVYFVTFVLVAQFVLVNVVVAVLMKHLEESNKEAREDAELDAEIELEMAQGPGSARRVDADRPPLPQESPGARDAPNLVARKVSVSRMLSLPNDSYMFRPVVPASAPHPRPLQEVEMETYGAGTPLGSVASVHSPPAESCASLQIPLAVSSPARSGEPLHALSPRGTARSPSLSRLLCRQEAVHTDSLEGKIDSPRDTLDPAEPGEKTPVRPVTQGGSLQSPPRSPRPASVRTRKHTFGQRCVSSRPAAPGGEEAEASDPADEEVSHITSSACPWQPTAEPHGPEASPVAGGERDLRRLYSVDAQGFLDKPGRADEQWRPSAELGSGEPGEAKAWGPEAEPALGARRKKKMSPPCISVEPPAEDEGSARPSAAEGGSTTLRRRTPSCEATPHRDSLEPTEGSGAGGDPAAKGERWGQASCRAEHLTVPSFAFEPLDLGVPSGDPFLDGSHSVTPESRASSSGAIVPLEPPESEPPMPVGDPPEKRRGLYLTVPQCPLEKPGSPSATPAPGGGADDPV

[4] = HEK-293T cell viability reduction – luminescence, B-cell screen hits, cytotoxicity control for BCR NF-kB inhibitor project, dose response (AID 489021); format: functional, cell-based;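 also: HEK-293T cells carrying an NF-kB luciferase reporter; cells exposed to compound for about 14 hours before viability readout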
[5] = molecular target: Induced myeloid leukemia cell differentiation protein Mcl-1 (Homo sapiens, UniProt Q07820); format: functional
Induced myeloid leukemia cell differentiation protein Mcl-1, sequence (Q07820 whole entry): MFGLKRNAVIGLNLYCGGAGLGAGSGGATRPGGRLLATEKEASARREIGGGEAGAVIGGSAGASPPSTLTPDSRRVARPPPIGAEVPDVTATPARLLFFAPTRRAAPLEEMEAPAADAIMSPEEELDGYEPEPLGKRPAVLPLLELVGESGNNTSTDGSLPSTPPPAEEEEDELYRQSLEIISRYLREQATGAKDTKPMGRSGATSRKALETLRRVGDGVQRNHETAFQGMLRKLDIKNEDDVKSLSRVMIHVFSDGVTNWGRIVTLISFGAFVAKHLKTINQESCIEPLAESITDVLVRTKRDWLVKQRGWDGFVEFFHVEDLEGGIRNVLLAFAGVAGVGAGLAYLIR

[6] = microbe, parasite or virus in culture; format: functional; conditions: Mycobacterium tuberculosis
[7] = molecular target: T1, Voltage-gated N-type calcium channel alpha-1B subunit/Amyloid beta A4 precursor protein-binding family A member 1 (Homo sapiens, UniProt Q00975+Q02410); format: protein assay
[8] = molecular target: T1, Voltage-gated N-type calcium channel alpha-1B subunit/Amyloid beta A4 precursor protein-binding family A member 1; format: protein assay; remark: listed apart in the source
[9] = molecular target: Prothrombin (Homo sapiens, UniProt P00734); test: Thrombin 1536 HTS Dose Response Confirmation. [Related pubchem assays: 1046 (Thrombin 1536 HTS; hits were confirmed in this assay)]; format: functional
[10] = cells; format: functional
[11] = viability of PTEN-deleted HCT116 cells – cell-based, HCT116 PTEN knockout, dose response (AID 1047); format: functional;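 also: HCT116 colon tumor cells with PTEN knocked out; cells exposed to compound for 60 hours before readout; potency for loss of cell viability measured by luminescence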
[12] = viability of HCT116 lacking mutant beta-catenin – cell-based, human colon tumor, dose response (AID 1045); format: functional;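 also: HCT116 colon tumor cells with beta catenin knocked out; cells exposed to compound for 60 hours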
[13] = Luminescence-based cell-based high throughput dose response assay to identify activators of the DAF-12 from the parasite S. stercoralis (ssDAF-12).; format: functional
[14] = molecular target: Paired box protein Pax-8 (Homo sapiens, UniProt Q06710); test: PAX8 transcriptional activity inhibition in RMG-I – RMG-I cells, luciferase, cherry-pick, dose response (AID 687027); format: functional, cell-based;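 also: luciferase reporter driven by Pax8 target thyroperoxidase promoter measured by SteadyGlo luminescence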
Paired box protein Pax-8, sequence (Q06710 whole entry): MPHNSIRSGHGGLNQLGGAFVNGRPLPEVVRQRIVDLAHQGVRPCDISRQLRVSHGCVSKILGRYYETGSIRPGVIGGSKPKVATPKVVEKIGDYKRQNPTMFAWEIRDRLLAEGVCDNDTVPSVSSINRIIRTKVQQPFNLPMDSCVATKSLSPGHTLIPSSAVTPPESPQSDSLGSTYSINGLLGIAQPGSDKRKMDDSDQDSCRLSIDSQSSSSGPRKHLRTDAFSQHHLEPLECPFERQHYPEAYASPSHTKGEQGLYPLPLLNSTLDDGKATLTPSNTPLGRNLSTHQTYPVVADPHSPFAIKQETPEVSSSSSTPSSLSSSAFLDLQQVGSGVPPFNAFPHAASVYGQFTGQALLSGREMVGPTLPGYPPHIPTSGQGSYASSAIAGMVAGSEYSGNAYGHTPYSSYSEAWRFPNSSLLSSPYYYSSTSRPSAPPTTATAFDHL

[15] = general cell-killing toxicity readout – plate reader, dry powder samples, cytotoxicity control for PAX8 inhibitor project, dose response (AID 743021); format: functional, cell-based
[16] = HEK-293T viability loss after treatment – luminescence, T-cell screen hits, cytotoxicity control for TCR NF-kB inhibitor project, dose response (AID 489026); format: functional, cell-based;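 also: cells exposed to compound about 14 hours before the viability readout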
[17] = luciferase reporter signal suppression in cells – H4 neuroglioma cells, luminescence, dose response (AID 1990); format: functional, cell-based
[18] = Luminescence Cell-Based Dose Response HTS to Identify Inhibitors of 5'UTR Stem-Loop Driven Prion Protein mRNA Translation in H4 Neuroglioblastoma Cells. [Related pubchem assays: 1827 (Project Summary), 1813 (Primary HTS)]; format: functional
[19] = alpha-synuclein stem-loop luciferase translation blockers – H4 neuroglioma cells, luminescence, confirmation (AID 1988); format: functional, cell-based
[20] = molecular target: Cytochrome P450 2C19 (Homo sapiens, UniProt P33261); test: Cytochrome panel assay with activity outcomes. Panel member name: p450-cyp2c19 Compounds with AC50 equal or less than 10 uM are considered active; format: functional; conditions: read-out: AC50
Cytochrome P450 2C19, sequence (P33261 whole entry): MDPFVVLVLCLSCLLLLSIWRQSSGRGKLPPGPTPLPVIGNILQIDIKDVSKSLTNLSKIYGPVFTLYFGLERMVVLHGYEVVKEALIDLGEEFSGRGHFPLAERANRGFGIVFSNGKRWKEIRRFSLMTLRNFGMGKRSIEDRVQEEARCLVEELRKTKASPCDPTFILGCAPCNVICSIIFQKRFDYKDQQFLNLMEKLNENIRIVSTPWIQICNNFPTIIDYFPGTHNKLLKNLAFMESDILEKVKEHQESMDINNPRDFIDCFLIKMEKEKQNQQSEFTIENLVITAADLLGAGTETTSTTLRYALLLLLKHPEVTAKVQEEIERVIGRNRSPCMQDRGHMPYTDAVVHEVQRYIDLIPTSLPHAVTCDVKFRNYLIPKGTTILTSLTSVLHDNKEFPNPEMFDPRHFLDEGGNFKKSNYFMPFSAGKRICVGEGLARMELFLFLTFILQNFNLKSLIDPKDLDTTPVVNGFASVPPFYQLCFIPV

COc1cccc(-n2c(SCC(=O)c3c[nH]c4ccccc34)nc3ccccc3c2=O)c1
CC50 [1]: > 25 µM (active)

O=C(CSc1nc2cc(Cl)c[nH]c-2n1)Nc1cccc(F)c1
CC50 [2]: > 40 µM (active)

Cc1cc(C)cc(N(CC(=O)NCc2ccc3c(c2)OCO3)C(=O)CCC(=O)Nc2ccccn2)c1
EC50 [3]: 2.74 µM (active)

CCc1ccc(/C=C2/SC(=S)N(CCC(=O)Nc3cccc(C(=O)O)c3)C2=O)cc1
IC50 [4]: > 80 µM (inactive)

CC(C)(C)c1ccc(CN2N=Nc3ccccc3S2(=O)=O)cc1
IC50 [5]: 24.1 µM (active)

Nc1c2c(nc3ccn(Cc4ccccc4)c(=O)c13)CCC2
CC50 [6]: > 40 µM (active)

CCCC(C(=O)NC1CCCC1)N(C(=O)Cn1nnc(-c2ccc(C)o2)n1)C1CCCC1 (centres undefined)
IC50 [7]: 0.221 µM (active) | IC50 [8]: 45 µM (active)

Cc1cc(S)nc(-c2ccccn2)n1
CC50 [2]: 31.8 µM (active)

COC/C=C/C1=CC2=CC(=O)C(C)(OC(=O)c3ccco3)C(=O)C2=CO1 (centres undefined)
IC50 [5]: 3.7 µM (active)

CC1CCN(CC(=O)Nc2ccccc2C#N)CC1
IC50 [9]: > 50 µM (not active)

O=C(CCNc1ccc(Cl)c(C(F)(F)F)c1)c1ccco1
EC50 [3]: 9.96 µM (active) | IC50 [10]: 31 µM (active)

COc1ccc(S(=O)(=O)N2CCC(C(=O)N3CCc4ccccc4C3)CC2)cc1C
EC50 [3]: 4.51 µM (active)

CC(=O)Oc1ccc(-c2ccc(C(=O)NCCc3ccc(S(N)(=O)=O)cc3)cc2)cc1
IC50 [7]: 11.4 µM (active) | IC50 [8]: > 50 µM (inactive)

O=C(NCCN1CCN(Cc2ccccc2)CC1)c1cc2c(O)nc3ccccc3c2s1
EC50 [11]: 13 µM (active) | EC50 [12]: 14.3 µM (active)

CC(=O)Nc1nc(-c2ccc(Cl)cc2)nc(C)c1C(C)=O
IC50 [13]: > 67.6 µM (inactive)

CSc1nc(-c2ccccc2)nc(N2CCOCC2)c1C(C)=O
IC50 [9]: > 50 µM (not active)

Cc1ccc2c(CC(=O)OCC(=O)Nc3ccc(Cl)cn3)coc2c1
AC50 [14]: 14.2 µM (active) | AC50 [15]: 52.7 µM (active)

Clc1cccc(Cl)c1OCCOCCNCc1ccccc1
IC50 [16]: > 80 µM (inactive)

CCC(C)Oc1ccccc1C1CC(=O)NC2=C1C(=O)CCC2 (centres undefined)
EC50 [11]: 12.5 µM (active) | EC50 [12]: 12.7 µM (active)

Cc1[nH]c2ccccc2c1C(=O)CN1C(=O)NC2(CC(C)CC(C)(C)C2)C1=O (centres undefined)
EC50 [17]: 11.4 µM (active) | EC50 [18]: 22.3 µM (active) | EC50 [19]: 10.8 µM (active) | IC50 [4]: 52.8 µM (inactive)

O=c1oc(-c2cccnc2)nc2ccccc12
IC50 [9]: 0.966 µM (active)

CC(CC(=O)Nc1ccc(Cl)c([N+](=O)[O-])c1)c1ccccc1 (centres undefined)
CC50 [6]: 30.7 µM (active) | AC50 [20]: 2.51 µM (inconclusive)

Cc1cc2oc(C(=O)Nc3ccc(S(N)(=O)=O)cc3)c(C)c2cc1Cl
IC50 [7]: 6.72 µM (active) | IC50 [8]: > 50 µM (inactive)
